# Laboratory results: patent US8609719B2, “Propargylated aminoindans, processes for preparation, and uses thereof” (priority 2006, dated 2013)
# Structures can show the parent of a compound that is named as a salt.
# Tests used:
# Recombinant human AChE = biological target: T1, Recombinant human AChE (Homo sapiens, UniProt P22303); test: Inhibition of acetylcholinesterase activity in vitro (Ellman, stopped time assay); format: biochemical; details: for kmax (unimolecular carbamoylation rate constant): AChE, 37° C.
# T1 construct: purchased Sigma-Aldrich Israel C-1682
# Method: Recombinant human AChE (C-1682), acetylthiocholine iodide (AcTh, A5771), bovine serum albumin (BSA, A-2153), and 5,5′-dithiobis(2-nitrobenzoic acid) (DTNB, D8130) were obtained from Sigma-Aldrich Israel. […] AChE was dissolved in phosphate buffer pH 8.0 containing 0.01% sodium azide NaAz and 1 mM EDTA and diluted to give a concentration of 15 units/ml. This solution was divided into aliquots of 0.5 ml, which were stored at −70° C. until use.
# The inhibitory activity against AChE was determined by the method of Ellmann et al. (Biochemical Pharmacology, 1961 (7) 88-95) using AcTh as a substrate. To characterize the carbamoylation step, a traditional stopped time assay was performed, in which AChE was incubated at 37° C. with a minimum of 5 different concentrations of inhibitor in the assay buffer, and aliquots were transferred to an ELISA multiscan microplate reader (Labsystems) at various times for the determination of residual AChE activity, with Ascent PC software. The rate of reaction was measured at 412λ at 37° C. in 0.2 ml wells containing AChE 0.023 units per ml, DTNB 0.4-0.5 mM, AcTh 0.50 or 1 mM and BSA (0.05%) in 50 mM phosphate buffer as described above. Measurements were made every 5 min for up to 5 hours.
# The inhibition of AChE by carbamates involves the formation of a reversible complex (EOH•CX), followed by carbamoylation of the enzyme to form (EOC) and a leaving group (HX). The carbamoylated enzyme is then hydrolyzed by water to regenerate the free enzyme (EOH).
# The formation of the reversible complex is represented by the equilibrium constant: KD. For the carbamoylation phase of the inhibition process the unimolecular rate constant is represented by kmax, and the bimolecular rate constant by ki.
# [1] = Pharmacokinetic analysis of ladostigil and metabolites in Alzheimer's disease patients; details: human, in vivo, 100 mg; for Cmax / AUC / AUC(0-t): after ladostigil tartrate 100 mg twice daily; for concentration at 12 h: mean concentration at pre-dose, 12 hours after the previous dose of ladostigil tartrate; for AUC: AUC (M)
# [2] = both, Cmax (M), mean, mean of patients, maintenance analysis Week 4
# [3] = both, Cmax (T), mean, mean of patients, termination analysis Week 9
# [4] = both, Cmin (M), mean of patients, maintenance analysis Week 4
# [5] = both, Cmin (T), mean of patients, termination analysis Week 9
# [6] = Patient 1, maintenance analysis Week 4
# [7] = Patient 2, maintenance analysis Week 4
# [8] = Patient 3, maintenance analysis Week 4
# [9] = Patient 4, maintenance analysis Week 4
# [10] = Patient 5, maintenance analysis Week 4
# [11] = Patient 6, maintenance analysis Week 4
# [12] = Patient 7, maintenance analysis Week 4
# [13] = Patient 8, maintenance analysis Week 4
# [14] = Patient 1, termination analysis Week 9
# [15] = Patient 2, termination analysis Week 9
# [16] = Patient 3, termination analysis Week 9
# [17] = Patient 4, termination analysis Week 9
# [18] = Patient 5, termination analysis Week 9
# [19] = Patient 6, termination analysis Week 9
# [20] = Patient 7, termination analysis Week 9
# [21] = Patient 8, termination analysis Week 9
# [22] = Cmax (M), Patient 1, maintenance analysis Week 4
# [23] = Cmax (M), Patient 2, maintenance analysis Week 4
# [24] = Cmax (M), Patient 3, maintenance analysis Week 4
# [25] = Cmax (M), Patient 4, maintenance analysis Week 4
# [26] = Cmax (M), Patient 5, maintenance analysis Week 4
# [27] = Cmax (M), Patient 6, maintenance analysis Week 4
# [28] = Cmax (M), Patient 7, maintenance analysis Week 4
# [29] = Cmax (M), Patient 8, maintenance analysis Week 4
# [30] = Cmax (T), Patient 1, termination analysis Week 9
# [31] = Cmax (T), Patient 2, termination analysis Week 9
# [32] = Cmax (T), Patient 3, termination analysis Week 9
# [33] = Cmax (T), Patient 4, termination analysis Week 9
# [34] = Cmax (T), Patient 5, termination analysis Week 9
# [35] = Cmax (T), Patient 6, termination analysis Week 9
# [36] = Cmax (T), Patient 7, termination analysis Week 9
# [37] = Cmax (T), Patient 8, termination analysis Week 9
# T1 sequence (P22303 32-614): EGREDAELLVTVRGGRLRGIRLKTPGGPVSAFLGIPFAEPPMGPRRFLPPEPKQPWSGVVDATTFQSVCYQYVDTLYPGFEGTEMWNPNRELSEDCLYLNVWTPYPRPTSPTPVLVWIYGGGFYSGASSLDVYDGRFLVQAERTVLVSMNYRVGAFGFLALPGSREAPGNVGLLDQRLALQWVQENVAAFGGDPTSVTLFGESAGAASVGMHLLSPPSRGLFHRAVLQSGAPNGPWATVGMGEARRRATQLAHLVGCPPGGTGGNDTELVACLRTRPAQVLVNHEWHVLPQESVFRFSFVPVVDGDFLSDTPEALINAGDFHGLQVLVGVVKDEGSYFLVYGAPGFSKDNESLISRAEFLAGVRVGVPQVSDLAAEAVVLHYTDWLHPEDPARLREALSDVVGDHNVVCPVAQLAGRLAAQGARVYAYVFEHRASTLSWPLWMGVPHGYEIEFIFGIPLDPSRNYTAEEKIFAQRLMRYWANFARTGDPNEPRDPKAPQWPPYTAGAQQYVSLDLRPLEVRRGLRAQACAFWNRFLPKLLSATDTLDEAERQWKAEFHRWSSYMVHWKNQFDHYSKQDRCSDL
Compound,"inhibition of acetylcholinesterase, in words (Recombinant human AChE)",kmax (unimolecular carbamoylation rate constant) (Recombinant human AChE) [min⁻¹],half-life ([1]; both) [h],"Cmax [1, 2] [M]","Cmax [1, 3] [M]","concentration at 12 h [1, 4] [M]","concentration at 12 h [1, 5] [M]","AUC [1, 6] [ng·h/mL]","AUC [1, 7] [ng·h/mL]","AUC [1, 8] [ng·h/mL]","AUC [1, 9] [ng·h/mL]","AUC [1, 10] [ng·h/mL]","AUC [1, 11] [ng·h/mL]","AUC [1, 12] [ng·h/mL]","AUC [1, 13] [ng·h/mL]","AUC(0-t) [1, 14] [ng·h/mL]","AUC(0-t) [1, 15] [ng·h/mL]","AUC(0-t) [1, 16] [ng·h/mL]","AUC(0-t) [1, 17] [ng·h/mL]","AUC(0-t) [1, 18] [ng·h/mL]",other results
"C#CCN[C@@H]1CCc2ccc(OC(=O)NC)cc21 [R-MCPAI, Methyl-carbamic acid 3-R-(prop-2-ynylamino)-indan-5-yl ester hydrochloride]",potent inhibitors,0.435,1.39,1.29e-06,1.07e-06,1.74e-08,1.32e-08,684,103,596,764,491,630,212,304,493,789,621,487,551,"AUC(0-t) [1, 19]: 947 ng·h/mL; AUC(0-t) [1, 20]: 584 ng·h/mL; AUC(0-t) [1, 21]: 343 ng·h/mL; Cmax [1, 22]: 1.8e-06 M; Cmax [1, 23]: 3e-07 M; Cmax [1, 24]: 1.2e-06 M; Cmax [1, 25]: 3e-06 M; Cmax [1, 26]: 1.5e-06 M; Cmax [1, 27]: 1.3e-06 M; Cmax [1, 28]: 5e-07 M; Cmax [1, 29]: 7e-07 M; Cmax [1, 30]: 1.3e-06 M; Cmax [1, 31]: 1e-06 M; Cmax [1, 32]: 1e-06 M; Cmax [1, 33]: 1.1e-06 M; Cmax [1, 34]: 1.3e-06 M; Cmax [1, 35]: 1.3e-06 M; Cmax [1, 36]: 1e-06 M; Cmax [1, 37]: 6e-07 M"
"CNC(=O)Oc1ccc2c(c1)[C@H](N)CC2 [R-MCAI, Methyl-carbamic acid 3-R-amino-indan-5-yl ester hydrochloride]",potent inhibitors,1.63,8.09,2.7e-07,2.61e-07,1.53e-07,1.39e-07,62,121,172,191,171,144,213,86,570,733,958,672,895,"AUC(0-t) [1, 19]: 964 ng·h/mL; AUC(0-t) [1, 20]: 186 ng·h/mL; AUC(0-t) [1, 21]: 426 ng·h/mL; Cmax [1, 22]: 1e-07 M; Cmax [1, 23]: 2e-07 M; Cmax [1, 24]: 3e-07 M; Cmax [1, 25]: 3e-07 M; Cmax [1, 26]: 3e-07 M; Cmax [1, 27]: 3e-07 M; Cmax [1, 28]: 4e-07 M; Cmax [1, 29]: 2e-07 M; Cmax [1, 30]: 2e-07 M; Cmax [1, 31]: 2e-07 M; Cmax [1, 32]: 3e-07 M; Cmax [1, 33]: 2e-07 M; Cmax [1, 34]: 4e-07 M; Cmax [1, 35]: 3e-07 M; Cmax [1, 36]: 2e-07 M; Cmax [1, 37]: 2e-07 M"
